From patent US20220117958A1, “COMPOSITIONS AND METHODS FOR INHIBITING ACSS2” (THE TRUSTEES OF THE UNIVERSITY OF PENNSYLVANIA, priority 2018, published 2022)
Converted amounts (≈) assume the structure as drawn. “And” between values parts separate entries of the source, which are not always exact repeats. Identical values can stand only once. Like-named read-outs stand apart in the source and are kept apart here. Marks after values point to notes of the source that are not given here.

What was measured:
[1] = Microsomal stability assay (half-life), human; assay type: in vitro ADME; details: Human microsomes, read-out: Microsomal stability T1/2
Source text: (§1) Table 20 provides results of in vitro and in vivo pharmacokinetics performed for each of the represented compounds.

[2] = Protein binding via Rapid Equilibrium Dialysis - plasma; assay type: in vitro ADME; details: Rat (SD) plasma, 2 μM
Source text: as §1

[3] = Turbidity-based aqueous solubility; assay type: physicochemical; details: aqueous solution (composition not given), kinetic from dmso stock, read-out: highest soluble concentration
Source text: as §1

[4] = Microsomal stability assay (half-life), mouse; assay type: in vitro ADME; details: Mouse (CD1) microsomes, read-out: Microsomal stability T1/2
Source text: as §1

[5] = In vivo PK, oral gavage, plasma; set-up: species or system Rat (SD); details: Rat, PO 5 mg/kg, BQL limit 1.00 ng/mL, listed as ADG I-206, 5 mg/kg
[6] = In vivo PK, oral gavage, plasma; set-up: species or system Rat (SD)
Source text: as §1
(§2) Tables 4 and 5 depict the summary of rat plasma sample concentrations after administration of ADG I-204. FIG. 6 provides a summary of rat plasma and brain concentrations.

[7] = test system: H3K9ac; assay: Western blot, differentiated CAD cell lysates, H3K9ac levels; assay type: cell-based; details: differentiated CAD cells, DMSO = 100.00%
Source text: as §1

[8] = In vivo PK, IV dose, Terminal - brain (brain availability); set-up: species or system Rat (SD); details: for Brain concentration, mean / Brain concentration, individual animal: IV 1 mg/kg
Protocol: Table 3 and FIG. 5 depict the brain availability of ADG I-204, ADG I-205, ADG I-206, and ADG I-207 after IV administration of 1 mg/kg dose.

[9] = In vivo PK, IV dose, plasma; set-up: species or system Rat (SD); details: for Plasma concentration, mean / Plasma concentration, individual animal: IV 1 mg/kg
Source text: as §1, §2

[10] = Microsomal stability assay (half-life), rat; assay type: in vitro ADME; details: Rat (SD) microsomes, read-out: Microsomal stability T1/2
Source text: as §1

**Q.** What does the source list for `CNC(=O)Nc1ccc2nc(-c3cccs3)c(-c3cccs3)nc2c1` [ADG-206, 1-(2,3-di(thiophen-2-yl)quinoxalin-6-yl)-3-methylurea]?
**A.** half-life at 2 μM [1]: 43.3 min; Protein binding, plasma: % Protein free [2]: 0.6565 % Protein free; solubility [3]: 5 µM (≈ 1.83 µg/mL); half-life at 2 μM [4]: 4.39 min; Plasma concentration, individual animal ([5]; 0.250 hr): BQL; Plasma concentration, individual animal ([5]; 0.500 hr): 2.16 ng/mL and 1.93 ng/mL; Plasma concentration, individual animal ([5]; 1.00 hr): 9.00 ng/mL and 6.94 ng/mL; Plasma concentration, individual animal ([5]; 4.00 hr): 17.2 ng/mL and 8.32 ng/mL; Plasma concentration, individual animal ([5]; 8.00 hr): 8.89 ng/mL; Plasma concentration, mean ([6]; Rat (SD), PO 5 mg/kg, 24 hr, BQL = below quantitation limit (1.00 ng/mL)): BQL; Plasma concentration, individual animal ([6]; Rat, PO 5 mg/kg, 24.0 hr, BQL limit 1.00 ng/mL): BQL; concentration at 0.25 h ([6]; SD, rat, plasma, po, 5 mg/kg, Rat (SD), 0.25 hr, BQL = below quantitation limit (1.00 ng/mL), read-out: Plasma concentration, mean): 1.47 ng/mL; concentration at 0.5 h ([6]; SD, rat, plasma, po, 5 mg/kg, Rat (SD), 0.5 hr, BQL = below quantitation limit (1.00 ng/mL), read-out: Plasma concentration, mean): 2.32 ng/mL; concentration at 1 h ([6]; SD, rat, plasma, po, 5 mg/kg, Rat (SD), 1 hr, BQL = below quantitation limit (1.00 ng/mL), read-out: Plasma concentration, mean): 7.14 ng/mL; concentration at 4 h ([6]; SD, rat, plasma, po, 5 mg/kg, Rat (SD), 4 hr, BQL = below quantitation limit (1.00 ng/mL)): 12.8 ng/mL; concentration at 8 h ([6]; SD, rat, plasma, po, 5 mg/kg, Rat (SD), 8 hr, BQL = below quantitation limit (1.00 ng/mL), read-out: Plasma concentration, mean): 12.2 ng/mL; concentration at 0.25 h ([6]; SD, rat, plasma, po, 5 mg/kg, Rat, 0.250 hr, BQL limit 1.00 ng/mL, read-out: Plasma concentration, individual animal): 1.47 ng/mL; concentration at 0.5 h ([6]; SD, rat, plasma, po, 5 mg/kg, Rat, 0.500 hr, BQL limit 1.00 ng/mL, read-out: Plasma concentration, individual animal): 2.86 ng/mL; concentration at 1 h ([6]; SD, rat, plasma, po, 5 mg/kg, Rat, 1.00 hr, BQL limit 1.00 ng/mL, read-out: Plasma concentration, individual animal): 5.47 ng/mL; concentration at 8 h ([6]; SD, rat, plasma, po, 5 mg/kg, Rat, 8.00 hr, BQL limit 1.00 ng/mL, read-out: Plasma concentration, individual animal): 15.6 ng/mL; H3K9ac levels normalized to H3 and DMSO control ([7]; 1 uM): 46.94%; H3K9ac levels normalized to H3 and DMSO control ([7]; 5 uM): 35.39%; H3K9ac levels normalized to H3 and DMSO control ([7]; 10 uM): 19.49%; H3K9ac levels normalized to H3 and DMSO control ([7]; 20 uM): 8.45%; H3K9ac levels normalized to H3 and DMSO control ([7]; 50 uM): 5.83%; H3K9ac levels normalized to H3 and DMSO control ([7]; 100 uM): 1.24%; Brain concentration, mean ([8]; Rat (SD), 1 hr, listed as ADG I-206, 1 mg/kg): 67 ng/g; Brain concentration, mean ([8]; Rat (SD), 4 hr, BQL limit 10.0 ng/g (204, 206), 20.0 ng/g (205, 207)): BQL; Brain concentration, mean ([8]; Rat (SD), 8 hr, BQL limit 10.0 ng/g (204, 206), 20.0 ng/g (205, 207)): BQL; Brain concentration, mean ([8]; Rat (SD), 24 hr, BQL limit 10.0 ng/g (204, 206), 20.0 ng/g (205, 207)): BQL; Brain concentration, individual animal ([8]; Rat, 0.0830 hr, third animal received only 70% of the test article, listed as ADG I-206, 1 mg/kg): 1080 ng/g and 1050 ng/g and 455*** ng/g; Brain concentration, individual animal ([8]; Rat, 1.00 hr, listed as ADG I-206, 1 mg/kg): 57.6 ng/g and 74.3 ng/g; Brain concentration, individual animal ([8]; Rat, 4.00 hr, BQL limit 10.0 ng/g (204, 206), 20.0 ng/g (205, 207)): BQL; Brain concentration, individual animal ([8]; Rat, 8.00 hr, BQL limit 10.0 ng/g (204, 206), 20.0 ng/g (205, 207)): BQL; Brain concentration, individual animal ([8]; Rat, 24.0 hr, BQL limit 10.0 ng/g (204, 206), 20.0 ng/g (205, 207)): BQL; concentration at 0.083 h ([8]; SD, rat, brain, iv, 1 mg/kg, Rat (SD), 0.083 hr): 862 ng/g; concentration at 1 h ([8]; SD, rat, brain, iv, 1 mg/kg, Rat (SD), 1 hr, read-out: Brain concentration, mean): 66.9 ng/g; concentration at 1 h ([8]; SD, rat, brain, iv, 1 mg/kg, Rat, 1.00 hr, read-out: Brain concentration, individual animal): 68.8 ng/g; Plasma concentration, mean ([9]; Rat (SD), 8 hr, terminal, listed as ADG I-206, 1 mg/kg): 5 ng/mL; Plasma concentration, mean ([9]; Rat (SD), 24 hr, terminal, BQL limit 1.00 ng/mL (ADG I-205: 2.00 ng/mL)): BQL; Plasma concentration, individual animal ([9]; Rat, 0.0830 hr, terminal, third animal received only 70% of the test article, listed as ADG I-206, 1 mg/kg): 1500 ng/mL and 1160 ng/mL and 610*** ng/mL; Plasma concentration, individual animal ([9]; Rat, 0.500 hr, not terminal (animals 4, 5 and 6), listed as ADG I-206, 1 mg/kg): 7310** ng/mL and 527 ng/mL and 507 ng/mL; Plasma concentration, individual animal ([9]; Rat, 1.00 hr, terminal, listed as ADG I-206, 1 mg/kg): 177 ng/mL and 142 ng/mL; Plasma concentration, individual animal ([9]; Rat, 4.00 hr, terminal, BQL limit 1.00 ng/mL (ADG I-205: 2.00 ng/mL), listed as ADG I-206, 1 mg/kg): 4.19 ng/mL and 1.81 ng/mL; Plasma concentration, individual animal ([9]; Rat, 8.00 hr, terminal, BQL limit 1.00 ng/mL (ADG I-205: 2.00 ng/mL), listed as ADG I-206, 1 mg/kg): BQL and 1.44 ng/mL and 8.52 ng/mL; Plasma concentration, individual animal ([9]; Rat, 24.0 hr, terminal, BQL limit 1.00 ng/mL (ADG I-205: 2.00 ng/mL)): BQL; concentration at 0.083 h ([9]; SD, rat, plasma, iv, 1 mg/kg, Rat (SD), 0.083 hr, terminal, read-out: Plasma concentration, mean): 1090 ng/mL; concentration at 0.5 h ([9]; SD, rat, plasma, iv, 1 mg/kg, Rat (SD), 0.500 hr, not a terminal time point (animals 4, 5 and 6)): 2780 ng/mL; concentration at 1 h ([9]; SD, rat, plasma, iv, 1 mg/kg, Rat (SD), 1 hr, terminal, read-out: Plasma concentration, mean): 165 ng/mL; concentration at 4 h ([9]; SD, rat, plasma, iv, 1 mg/kg, Rat (SD), 4 hr, terminal, read-out: Plasma concentration, mean): 3 ng/mL; concentration at 8 h ([9]; SD, rat, plasma, iv, 1 mg/kg, Rat (SD), 8 hr, terminal, read-out: Plasma concentration, mean): 4.98 ng/mL; concentration at 1 h ([9]; SD, rat, plasma, iv, 1 mg/kg, Rat, 1.00 hr, terminal, read-out: Plasma concentration, individual animal): 176 ng/mL; half-life at 2 μM [10]: 6.36 min
